Values after ≈ are worked out from the molar mass of the structure shown.
Tests used:
[1] = test system: CDF-1 mice; experiment: Acute toxicity test in mice, single intraperitoneal administration; format: in vivo; settings: single i.p., female CDF-1 mice, 7 days observation
Procedure: Acute Toxicity Test with Compounds of Example in Mice
0.2 ml of a solution of a compound of the Example in physiological saline was intraperitoneally administered once to female CDF-1 mice (5 weeks in age, 5 animals per group). Observation was conducted for 7 days following the administration.

[2] = test system: Sarcoma 180 cells; experiment: Antitumor activity on Sarcoma 180 cells in ICR mice, oral; format: in vivo; settings: 0.3 mg/mouse, 9 times, tumor weight after 21 days
Procedure: (§1) Antitumor Activity of Compounds Obtained in Examples on Sarcoma 180 Cells
(1) Sarcoma 180 cells were subcutaneously transplanted to the side of the back of ICR mice (5 mice per group) at 1×10^6 cells per animal. 8, 9, 10, 13, 14, 15, 16, 17 and 20 days after the transplantation (a total of 9 times), the compound of Example 1, dissolved in physiological saline, was orally administered (0.3 mg/mouse). After 21 days, the tumor tissue was excised and weighed.

[3] = test system: human oral epidermoid carcinoma KB cells; experiment: Growth inhibitory effect against KB cells (MTT, 72 h); format: cell-based; settings: absorbance 590 nm
Procedure: Growth Inhibitory Effect (IC50) of Compounds Obtained in Examples Against KB Cells Human oral epidermoid carcinoma KB cells (1×10^4 cells/ml) were transferred to a 96-well microwell plate at 0.1 ml per well and subjected to stationary culture at 37° C. with 5% CO2 for 24 hours. To the resulting culture was added a 10% MEM (Nissui Junyaku) solution of a compound of an Example, followed by stationary culture at 37° C. with 5% CO2 for 72 hours. The culture broth was then removed using a micropipette. 0.1 ml of a 10% minimal essential medium solution containing 3-(4,5-dimethylthiazol-2-yl)-2,5-diphenyl-2H-tetrazolium bromide (Dojin Kagaku) (1.0 mg/ml) was added, followed by cultivation at 37° C. for 4 hours. 0.1 ml of a 10% sodium dodecylsulfate (Wako Pure Chemical) was then added, followed by cultivation at 37° C. for 24 hours.

[4] = test system: Sarcoma 180 cells; experiment: Antitumor activity on Sarcoma 180 cells in ICR mice, intraperitoneal; format: in vivo; settings: 0.1 mg/mouse, 8 times, tumor weight after 21 days
Procedure: as §1
(2) Sarcoma 180 cells were subcutaneously transplanted to the side of the back of ICR mice (5 mice per group) at 1×10^6 cells per animal. 8, 9, 12, 13, 15, 16, 19 and 20 days after the transplantation (a total of 8 times), a compound of an Example, dissolved in physiological saline, was intraperitoneally administered (0.1 mg/mouse). After 21 days, the tumor tissue was excised and weighed.

[5] = cited from earlier work

In the case of `CCCCCCCCCCCCCCCCCCOCC(COCCOCC[n+]1ccn(CCCCCC(=O)[O-])c1)Oc1ncccn1` (stereo not shown) [Example 1, 6-[3-[2-[2-[3-octadecyloxy-2-(pyrimidin-2-yloxy)-propoxy]ethoxy]ethyl]imidazolio-1yl]hexanoate], the “Number of mice that died/number of subject mice” value ([1]; 50 mg/kg) was 0/5, the “Growth inhibition ratio (1-T/C %)” value [2] was 65% and the IC50 [3] was 0.16 mg/L (≈ 0.237 µM).
With `CCCCCCCCCCCCCCCCCCOCC(COCCOCC[n+]1ccn(CCCCCC(=O)[O-])c1)OCC(C)=O` (stereo not shown) [Example 3] the “Number of mice that died/number of subject mice” value ([1]; 50 mg/kg) was 0/5 and the IC50 [3] was 0.32 mg/L (≈ 0.49 µM).
With `CCCCCCCCCCCCCCCCCCOCC(COCCOCC[N+](C)(C)CCCCCC(=O)[O-])OCC(C)=O` (stereo not shown) [Example 5, 6-[N,N-dimethyl-N-[2-[2-[3-octadecyloxy-2-(2-oxopropoxy)propoxy]ethoxy]ethyl]ammonio]hexanoate] the “Number of mice that died/number of subject mice” value ([1]; 50 mg/kg) was 0/5 and the IC50 [3] was 2.5 mg/L (≈ 3.97 µM).
For `CCCCCCCCCCCCCCCCCCOCC(COCCOCC[n+]1ccn(CC(=O)[O-])c1)OCCCCCC` (stereo not shown) [Example 6, 2-[3-[2-[2-[2-hexyloxy-3-octadecyloxypropoxy]-ethoxy]ethyl]imidazolio-1-yl]acetate], the “Number of mice that died/number of subject mice” value ([1]; 50 mg/kg) was 0/5 and the IC50 [3] was 2.5 mg/L (≈ 4 µM).
`CCCCCCCCCCCCCCCCCCOCC(COCCOCC[n+]1ccn(CCCCCCCCC(=O)[O-])c1)Oc1ncccn1` (stereo not shown) [Example 7] showed an IC50 [3] of 0.16 mg/L (≈ 0.223 µM).
For `CCCCCCCCCCCCCCCCCCOCC(COCCOCC[n+]1ccn(CCCC(=O)[O-])c1)Oc1ncccn1` (stereo not shown) [Example 8, 4-[3-[2-[2-[3-octadecyloxy-2-(pyrimidin-2-yloxy)-propoxy]ethoxy]ethyl]imidazolio-1-yl]butyrate], the “Growth inhibition ratio (1-T/C %)” value [4] was 66%, the “Number of mice that died/number of subject mice” value ([1]; 100 mg/kg) was 0/5 and the IC50 [3] was 1.25 mg/L (≈ 1.93 µM).
For `CCCCCCCCCCCCCCCCCCOCC(COCCOCC[N+](C)(C)CCCCCC(=O)[O-])Oc1ncccn1` (stereo not shown) [Example 9, 6-[N,N-dimethyl-N-[2-[2-[3-octadecyloxy-2-(pyrimidin-2-yloxy)propoxy]ethoxy]ethyl]ammonio]-hexanoate], the “Number of mice that died/number of subject mice” value ([1]; 100 mg/kg) was 0/5 and the IC50 [3] was 1.25 mg/L (≈ 1.92 µM).
For `CCCCCCCCCCCCCCCCCCOCC(COCCOCC[n+]1ccn(CCCCc2ccc(C(=O)[O-])cc2)c1)Oc1ncccn1` (stereo not shown) [Example 10, 4-[4-[3-[2-[2-[3-octadecyloxy-2-(pyrimidin-2-yloxy)-propoxy]ethoxy]ethyl]imidazolio-1-yl]butyl]benzoate], the “Number of mice that died/number of subject mice” value ([1]; 50 mg/kg) was 0/5 and the IC50 [3] was 0.32 mg/L (≈ 0.434 µM).
In the case of `CCCCCCCCCCCCCCCCCCOCC(COCCOCC[n+]1ccn(CCCCC2CCC(C(=O)[O-])CC2)c1)Oc1ncccn1` (stereo not shown) [Example 11, 4-[4-[3-[2-[2-[3-octadecyloxy-2-(pyrimidin-2-yloxy)propoxy]ethoxy]ethyl]imidazolio-1-yl]butyl]-cyclohexylcarboxylate], the IC50 [3] was 0.32 mg/L (≈ 0.431 µM).
For `CCCCCCCCCCCCCCCCCCOCC(COCCOCC[n+]1cccc(CCC(=O)[O-])c1)Oc1ncccn1` (stereo not shown) [Example 12, 3-[1-[2-[2-[3-octadecyloxy-2-(pyrimidin-2-yloxy)-propoxy]ethoxy]ethyl]pyridinio-3-yl]propionate], the “Growth inhibition ratio (1-T/C %)” value [4] was 81%, the “Number of mice that died/number of subject mice” value ([1]; 100 mg/kg) was 0/5 and the IC50 [3] was 0.63 mg/L (≈ 0.978 µM).
`CCCCCCCCCCCCCCCCCCOCC(COCCOCC[n+]1ccn(CCCCCC(=O)OC)c1)Oc1ncccn1.[Cl-]` (stereo not shown) [Example 14, 1-(5-methoxycarbonylpentyl)-3-[2-[2-[3-octadecyloxy-2-(pyrimidin-2-yloxy)propoxy]ethoxy]-ethyl]imidazolium chloride] gave an IC50 [3] of 0.32 mg/L.
Work on `CCCCCCCCCCCCCCCCCCOCC(COCCOCC[n+]1ccn(CCC(C)(C)C(=O)OCC)c1)Oc1ncccn1` (stereo not shown) [Example 15, 1-(3-ethoxycarbonyl-3-methyl)butyl-3-[2-[2-[3-octadecyloxy-2-(pyrimidin-2-yloxy)propoxy]-ethoxy]ethylimidazolium chloride] yielded an IC50 [3] of 0.63 mg/L.
In the case of `CCCCCCCCCCCCCCCCCCOCC(COCCOCC[n+]1ccn(CCC(C)(C)C(=O)[O-])c1)Oc1ncccn1` (stereo not shown) [Example 16, 2,2-dimethyl-4-[3-[2-[2-[3-octadecyloxy-2-(pyrimidin-2-yloxy)propoxy]ethoxy]ethyl]imidazolio-1-yl]butyrate], the IC50 [3] was 0.63 mg/L (≈ 0.933 µM).
With `CCCCCCCCCCCCCCCCCCOCC(COCCOCC[N+]1(CCCCCC(=O)[O-])CCCC1)Oc1ncccn1` (stereo not shown) [Example 17, 6-[1-[2-[2-[3-octadecyloxy-2-(pyrimidin-2-yloxy)-propoxy]ethoxy]ethyl]pyrrolidinio-1-yl]hexanoate] the IC50 [3] was 0.32 mg/L (≈ 0.472 µM).
Work on `CCCCCCCCCCCCCCCCCCOCC(COCCOCC[n+]1ccn(CCCOC(=O)CCC(=O)[O-])c1)Oc1ncccn1` (stereo not shown) [Example 18, 3-[3-[2-[2-[3-octadecyloxy-2-(pyrimidin-2-yloxy)-propoxy]ethoxy]ethyl]imidazolio-1-yl]propyl succinate] yielded an IC50 [3] of 0.32 mg/L.
Compound `CCCCCCCCCCCCCCCCCCOCC(COCCOCC[n+]1cccc(CCCOC(=O)CCC(=O)[O-])c1)Oc1ncccn1` (stereo not shown) [Example 19, 3-[1-[2-[2-[3-octadecyloxy-2-(pyrimidin-2-yloxy)-propoxy]ethoxy]ethyl]pyridinio-3-yl]propyl succinate] has an IC50 [3] of 0.63 mg/L.
With `CCCCCCCCCCCCCCCCCCOCC(COCCOCCOCC[n+]1ccn(CCCCCC(=O)[O-])c1)Oc1ncccn1` (stereo not shown) [Example 20, 6-[3-[2-[2-[2-[3-octadecyloxy-2-(pyrimidin-2-yloxy)propoxy]ethoxy]ethoxy]ethyl]imidazolio-1-yl]-hexanoate] the “Number of mice that died/number of subject mice” value ([1]; 100 mg/kg) was 0/5 and the IC50 [3] was 0.32 mg/L (≈ 0.445 µM).
For `CCCCCCCCCCCCCCCCCCOCC(COCCOCCOCC[n+]1ccn(CCCC(=O)[O-])c1)Oc1ncccn1` (stereo not shown) [Example 21, 4-[3-[2-[2-[2-[3-octadecyloxy-2-(pyrimidin-2-yloxy)propoxy]ethoxy]ethoxy]ethyl]imidazolio-1-yl]-butyrate], the “Number of mice that died/number of subject mice” value ([1]; 100 mg/kg) was 0/5 and the IC50 [3] was 0.63 mg/L (≈ 0.912 µM).
`CCCCCCCCCCCCCCCCCCOCC(COCCCC[n+]1cccc(CCC(=O)[O-])c1)Oc1ncccn1` (stereo not shown) [Example 22, 3-[1-[4-[3-octadecyloxy-2-(pyrimidin-2-yloxy)-propoxy]butyl]pyridinio-3-yl]propionate] showed an IC50 [3] of 0.63 mg/L (≈ 1 µM).
`CCCCCCCCCCCCCCCCCCOCC(COCCCC[n+]1cccc(CCCCC(=O)[O-])c1)Oc1ncccn1` (stereo not shown) [Example 23, 5-[1-[4-[3-octadecyloxy-2-(pyrimidin-2-yloxy)-propoxy]butyl]pyridinio-3-yl]pentanoate] gave an IC50 [3] of 0.32 mg/L (≈ 0.488 µM).
Compound `O=C([O-])CCCn1cc[n+](CCOCCOCC(COCCCCCCCCCCCCC2CCCCC2)Oc2ncccn2)c1` (stereo not shown) [Example 24, 4-[3-[2-[2-[3-(12-cyclohexyldodecyloxy)-2-(pyrimidin-2-yloxy)propoxy]ethoxy]ethyl]imidazolio-1-yl]butyrate] has an IC50 [3] of 0.32 mg/L (≈ 0.496 µM).
`O=C([O-])CCCCCn1cc[n+](CCOCCOCC(COCCCCCCCCCCCCC2CCCCC2)Oc2ncccn2)c1` (stereo not shown) [Example 25, 6-[3-[2-[2-[3-(12-cyclohexyldodecyloxy)-2-(pyrimidin-2-yloxy)propoxy]ethoxy]ethyl]imidazolio-1-yl]hexanoate] showed an IC50 [3] of 0.16 mg/L (≈ 0.238 µM).
For `CCCCCCCCCCCCCCCCCCOCC(COP(=O)([O-])OCC[N+](C)(C)C)OC` (stereo not shown) [phospholipid represented by formula (II)], the antitumor activities ([5]; Anticancer Research, 1, 345 (1981)) is given as “possess antitumor activities” and the adverse effects ([5]; clinical trial limitation, similarity to PAF) is given as “various adverse effects such as bronchostenosis, platelet aggregation and hypotension”.

Source: US5081245A, “Carboxylic acid derivatives” (Takeda Chemical Industries, Ltd., priority 1988, dated 1992)
